Here are results for 1 molecule from patent publication US20090291857A1, “METHODS TO IDENTIFY INHIBITORS OF THE UNFOLDED PROTEIN RESPONSE” (THE BOARD OF TRUSTEES OF THE LELAND STANFORD JUNIOR …, priority 2006, published 2009).

For one experiment, the system named is XBP-1s. As to the kind of experiment: Western immunoblot analysis of XBP-1s in HT1080 cells. It is filed as cell-based, human. The following applies: 2 μM; for levels of XBP-1s under hypoxia: 24 hours of hypoxia. The method, then: Cells were harvested, lysed, and analyzed by Western blot using anti-XBP-1 antisera (lower panel) or anti-HIF-1 antisera (top panel) to confirm hypoxia exposure.
(§1) Cells (2×10^6) were cultured in 10-cm dishes, collected using a cell scraper at 4° C., and lysed by addition of 150 μl cell lysis buffer [50 mM Tris pH 7.4, 150 mM NaCl, 10% glycerol, 0.5% Triton X-100. 0.5% NP-40, 2 mM Na3VO4, 20 mM beta-glycerophosphate, 10 mM NaF, 1 mM DTT, 1 mM PMSF). Lysates were centrifuged for 5 min at 10,000×g, and proteins (˜40 μg) were resolved by SDS-PAGE followed by semi-dry transfer to nitrocellulose membranes. Membranes were blocked in TBS-5% milk supplemented with 0.1% Tween-20. The blots were then probed overnight with relevant antibodies, washed, and incubated for 2 hours with species-specific secondary antibodies conjugated to horseradish peroxidase. After washing in block solution, immunoreactive material was detected by enhanced chemiluminescence (SuperSignal West Dura Extended, Pierce, Inc., Rockville, Ill.).
A. XBP-luciferase reporter construct. Firefly luciferase was inserted downstream of the IRE1α splice site in human XBP-1 to enable the conditional translation of luciferase under ER stress in an IRE1α-dependent manner. B. Selective inhibition of the XBP-luciferase reporter by irestatin 9389. […] After 24 hours, luciferase activity was analyzed in an automated plate reader. For each cell line, values are expressed as the percent inhibition of the median for Tm/Tg-treated wells, corrected for background. […] Values are expressed as the fold increases over uninduced levels. […] Cells were harvested, lysed, and analyzed by immunoblotting with antisera specific for HIF-1α (top), XBP-1s (middle) or actin (bottom). […] Total RNA was analyzed by Northern blotting using radiolabeled probes specific for P58^IPK or DER-1. […]
Since these assays employed a chimeric XBP-luciferase substrate, we next determined whether irestatin 9389 could inhibit the function of endogenous XBP-1s. […]

The subject of another experiment is Grp78. As to the kind of experiment: Grp78 immunoblot in HT1080 cells. It is filed as cell-based, human. As to conditions: 2.5 μM, 16 hours (also 24 or 36 hours). The method, then: as §1
HT1080 cells were exposed to DMSO vehicle (lane 1), irestatin 9389 (2.5 μM; lane 2) for 16 hours or Tm (5 μg/ml; lane 3) for 8 hours. Following treatments, cells were harvested, lysed, and analyzed by immunoblotting using anti-Grp78 antibody (top) or anti-actin (bottom) as a loading control. […] Cell lysates were analyzed by Western immunoblotting using anti-IRE1α (bottom) or anti-phospho-IRE1α antibodies (top). […] Lysates were analyzed by Western blot using antisera specific for phospho-JNK1 (top) or total JNK1 (bottom). […]
Background: Immunoblotting shows a protein as a band on a membrane.

As to `Cc1csc(NC(=O)CSc2nc3c(c(C(F)(F)F)c2C#N)CCC3)n1` [Compound 9389], the “levels of XBP-1s under hypoxia” value in the experiment with XBP-1s (listed as Irestatin 9389) is “blocks the accumulation of XBP-1s”; in the experiment on XBP-1s (listed as irestatin 9389), “decreased levels of XBP-1s”. Besides, the “accumulation of XBP-1s following treatment with Tm” value in the experiment on XBP-1s (Tm 4 μg/ml 20 hours) is “blocked the accumulation of XBP-1s”. Further, the Grp78 levels result with Grp78 (listed as Irestatin 9389) is listed as “does not modulate the expression of Grp78”; in the experiment on Grp78 (listed as irestatin 9389), “no effect on Grp78 levels”.
